Reference: patent US20090247752A1, “GATIFLOXACIN-CONTAINING AQUEOUS LIQUID PREPARATION, ITS PRODUCTION AND METHOD FOR SUPPRESSING FORMATION OF PRECIPITATE DURING STORAGE AT LOWER TEMPERATURE AND AT THE TIME OF FREEZING AND THAWING OF THE AQUEOUS LIQUID PREPARATION” (Kyorin Pharmaceutical Co., Ltd., priority 2008, published 2009)
≈ marks a conversion by molar mass, not a printed value.

Assay: Solubility test of Gatifloxacin (Test Example 1)
Type: physicochemical
Conditions: for solubility thermodynamic at 3 h: pH 6.5, aqueous buffer, thermodynamic from solid, pH 6.5, stirred 3 hours at room temperature
Procedure: According to the formulations shown in Table 1, a saturated solution of Gatifloxacin containing the given amount of each additive was prepared. The solution containing sodium dihydrogen phosphate, boric acid or malonic acid was adjusted to a pH of 6.5 with hydrochloric acid and sodium hydroxide, and then stirred for 3 hours at room temperature. The solution containing nicotinamide was adjusted to 6.0 with hydrochloric acid and sodium hydroxide, filled in glass ampoules and shaken for 2 days at room temperature. As a control, a saturated solution of Gatifloxacin containing no additive was prepared, its pH was adjusted to 6.5 with hydrochloric acid and sodium hydroxide, and stirred for 3 hours at room temperature. Each solution was filtered through a membrane filter (0.45 μm), and the filtrate (1 mL) was precisely measured and a diluent was added thereto to precisely make its volume up to 50 mL. The resultant solution (3 mL) was precisely measured, an internal standard solution (3 mL) was precisely added thereto, and a diluent was added thereto to precisely make its volume up to 20 mL to prepare a sample solution. The concentration of Gatifloxacin was measured in the sample solution (20 μL) under the following HPLC conditions. The solubility was converted in terms of Gatifloxacin 3/2 hydrate.
Detector: Ultraviolet absorptiometer (measurement wavelength: 280 nm) Column: Inertsil ODS-2 […], 4.6 mmφ×150 mm, GL Sciences Inc. Column temperature: 40° C. Mobile phase: acetonitrile (180 mL), water (810 mL) and triethylamine (10 mL) were mixed, and the pH was adjusted to 4.5 with phosphoric acid. Flow rate: 0.8 mL/min Injection amount: 20 μL Internal standard solution: a mobile phase solution of methyl p-aminobenzoate (1→10000) Diluent: Mixture of acetonitrile, water and phosphoric acid (200:800:0.8)

Solubility of Gatifloxacin (nicotinamide 1 w/v %, pH 6.0, shaken 2 days at room temperature, in terms of 3/2 hydrate): 1.41 w/v %
solubility thermodynamic at 3 h (sodium dihydrogen phosphate dihydrate 0.5 w/v %, in terms of 3/2 hydrate): 7200 µg/mL (≈ 19.2 mM)
solubility thermodynamic at 3 h (sodium dihydrogen phosphate dihydrate 1 w/v %, in terms of 3/2 hydrate): 9100 µg/mL (≈ 24.2 mM)
solubility thermodynamic at 3 h (saturated solution containing boric acid 0.5 w/v %, boric acid 0.5 w/v %, in terms of 3/2 hydrate): 5800 µg/mL (≈ 15.5 mM)
solubility thermodynamic at 3 h (saturated solution containing boric acid 1 w/v %, boric acid 1 w/v %, in terms of 3/2 hydrate): ~6000 µg/mL (≈ 16 mM)
solubility thermodynamic at 3 h (saturated solution containing malonic acid 0.5 w/v %, malonic acid 0.5 w/v %, in terms of 3/2 hydrate): 9600 µg/mL (≈ 25.6 mM)
solubility thermodynamic at 3 h (saturated solution containing malonic acid 1 w/v %, malonic acid 1 w/v %, in terms of 3/2 hydrate): 9300 µg/mL (≈ 24.8 mM)
solubility thermodynamic at 3 h (saturated solution containing no additive (control), no additive (control), in terms of Gatifloxacin 3/2 hydrate): 5300 µg/mL (≈ 14.1 mM)
SMILES: COc1c(N2CCNC(C)C2)c(F)cc2c(=O)c(C(=O)O)cn(C3CC3)c12 (racemic) [Gatifloxacin, (±)-1-cyclopropyl-6-fluoro-1,4-dihydro-8-methoxy-7-(3-methyl-1-piperazinyl)-4-oxo-3-quinolinecarboxylic acid]
